27 compounds from patent US9675596B2, “1,2,4-thiazolidin-3-one derivatives and their use in the treatment of cancer” (Baltic Bio AB, priority 2009, dated 2017) can be followed below.

The structures appear in SMILES notation.

In this test the test system is PC-3 cells. In words: Cell proliferation assay (BrdU incorporation). The format is cell-based. As to conditions: Homo sapiens, serum-free, relative to vehicle control (1 unit), 18 h + 6 h BrdU, read-out: Units of BrdU incorporation. As for the experimental part: PC-3 cancer cell lines were propagated in D-MEM (Gibco 21885) supplemented with 10% Foetal calf serum. 15000 cells per well were seeded in 96 well plates and incubated overnight. The culture media was changed to serum-free D-MEM for 24 h. The culture media was then changed to serum free D-MEM containing either 0.2% DMSO as vehicle control or 0.3, 0.6, 1.2 or 2.5 μM (or 1.25, 2.5, 5, 10 μM (as indicated in Table 1 below)) of the selected compounds of Example 1 to Example 8 in 0.2% DMSO in quadruplicate. After 18 h incubation, BrdU was added according to manufacturer's recommendations. After 6 h incubation in the presence of BrdU, the culture media was removed and BrdU incorporation was measured using “Cell Proliferation ELISA, BrdU colorimetric” Roche (11647229001) according to manufacturer's recommendations.
Proliferation rate of PC-3 cells are reduced by relevant concentrations of the test compounds as measured by BrdU incorporation.

As for `O=c1[nH]s/c(=N\c2ccc(Cl)c(Cl)c2)n1Cc1ccccc1` [Example 2e], the activity at 5 µM was found to be 17%.
On to `CN(CCn1c(=O)[nH]s/c1=N\c1ccc(Cl)c(Cl)c1)c1ccc(Cl)cc1` [Example 2g, 4-[2-[(4-chlorophenyl)-methyl-amino]ethyl]-5-(3,4-dichlorophenyl)imino-1,2,4-thiadiazolidin-3-one], for which the activity at 10 µM worked out at 14%.
Still for that read-out and setting: the figure for `O=C(Nc1nc(=O)n(Cc2cccc(C(F)(F)F)c2)s1)c1ccccc1` [Example 3, N-[3-oxo-2-[[3-(trifluoromethyl)phenyl]methyl]-1,2,4-thiadiazol-5-yl]benzamide] is 70%.
Still for that read-out and setting: the figure for `O=C(Nc1nc(=O)n(Cc2cccc(C(F)(F)F)c2)s1)c1ccc(F)cc1` [Example 4a, 4-fluoro-N-[3-oxo-2-[[3-(trifluoromethyl)phenyl]methyl]-1,2,4-thiadiazol-5-yl]benzamide] is 30.9%.
Still for that read-out and setting: with `O=C(Cc1ccc(F)cc1)Nc1nc(=O)n(Cc2cccc(C(F)(F)F)c2)s1` [Example 4b, 2-(4-fluorophenyl)-N-[3-oxo-2-[[3-(trifluoromethyl)phenyl]methyl]-1,2,4-thiadiazol-5-yl]acetamide] the figure was 72%.
Consider `O=C(Nc1nc(=O)n(Cc2ccc(F)c(F)c2)s1)c1ccc(Cl)cc1` [Example 4c, 4-chloro-N-[2-[(3,4-difluorophenyl)methyl]-3-oxo-1,2,4-thiadiazol-5-yl]benzamide], for which the activity at 10 µM was found to be 39.3%.
On the same count and under the same terms, the figure for `O=C(Nc1nc(=O)n(Cc2ccc(F)cc2)s1)c1ccc(Cl)cc1` [Example 4d, 4-chloro-N-[2-[(4-fluorophenyl)methyl]-3-oxo-1,2,4-thiadiazol-5-yl]benzamide] is 61.2%; for `O=C(Nc1nc(=O)n(Cc2ccc(Cl)cc2)s1)c1ccc(Cl)cc1` [Example 4e, 4-chloro-N-[2-[(4-chlorophenyl)methyl]-3-oxo-1,2,4-thiadiazol-5-yl]benzamide] it is 35.5%.
For `O=C(Nc1nc(=O)n(C2(c3ccc(F)cc3)CC2)s1)c1ccc(Cl)c(Cl)c1` [Example 4i, 3,4-dichloro-N-[2-[1-(4-fluorophenyl)cyclopropyl]-3-oxo-1,2,4-thiadiazol-5-yl]benzamide], the activity at 5 µM came out at 10%.
Turning to `O=C(Nc1nc(=O)n(Cc2ccc(F)cc2)s1)c1c(Cl)cccc1Cl` [Example 4l, 2,6-dichloro-N-[2-[(4-fluorophenyl)methyl]-3-oxo-1,2,4-thiadiazol-5-yl]benzamide], the activity at 10 µM worked out at 20%.
Turning to `O=C(Nc1nc(=O)n(Cc2ccc(F)cc2)s1)c1ccc(Cl)cc1Cl` [Example 4m, 2,4-dichloro-N-[2-[(4-fluorophenyl)methyl]-3-oxo-1,2,4-thiadiazol-5-yl]benzamide], the activity at 10 µM was determined as 23%.
For `O=C(Nc1nc(=O)n(Cc2ccc(F)cc2)s1)c1ccc(OC(F)(F)F)cc1` [Example 4n, N-[2-[(4-fluorophenyl)methyl]-3-oxo-1,2,4-thiadiazol-5-yl]-4-(trifluoromethoxy)-benzamide], the activity at 2.5 µM stood at 17%.
For the compound `O=C(Nc1nc(=O)n(Cc2ccc(F)cc2)s1)c1cc(C(F)(F)F)cc(C(F)(F)F)c1` [Example 4o, N-[2-[(4-fluorophenyl)methyl]-3-oxo-1,2,4-thiadiazol-5-yl]-3,5-bis(trifluoromethyl)-benzamide], the activity at 10 µM was 28%.
Same read-out and setting: with `O=C(Nc1nc(=O)n(Cc2ccc(F)cc2)s1)c1ccc(F)c(F)c1` [Example 4p, 3,4-difluoro-N-[2-[(4-fluorophenyl)methyl]-3-oxo-1,2,4-thiadiazol-5-yl]benzamide] the figure was 26%; with `O=c1[nH]s/c(=N\c2ccc(Cl)c(Cl)c2)n1CCOc1ccccc1` [Example 5a, 5-(3,4-dichlorophenyl)imino-4-(2-phenoxyethyl)-1,2,4-thiadiazolidin-3-one], 37%.
Same read-out and setting: the figure for `O=c1nc(Nc2ccc(Cl)c(Cl)c2)sn1CCOc1ccccc1` [Example 5b, 5-(3,4-Dichloro-phenylamino)-2-(2-phenoxy-ethyl)-[1,2,4]thiadiazol-3-one] is 14%.
With `O=c1[nH]s/c(=N\c2ccc(Cl)c(Cl)c2)n1C(c1ccccc1)c1ccccc1` [Example 6, 4-Benzhydryl-5-(3,4-dichlorophenyl)imino-1,2,4-thiadiazolidin-3-one], the activity at 1.25 µM worked out at 42%.
For the compound `COc1ccc(Cn2sc(Nc3ccc(Cl)c(Cl)c3)nc2=O)cc1` [Example 8a, 1,5-(3,4-Dichlorophenylamino)-2-(4-methoxybenzyl)-[1,2,4]thiadiazol-3-one], the activity at 2.5 µM turned out to be 4%.
On to `O=c1nc(Nc2ccc(Cl)c(Cl)c2)sn1Cc1ccc(Cl)cc1` [Example 8b, 1,5-(3,4-dichlorophenylamino)-2-(4-chlorobenzyl)-[1,2,4]thiadiazol-3-one], for which the activity at 2.5 µM was determined as 18%.
`O=c1nc(Nc2ccc(Cl)c(Cl)c2)sn1Cc1ccc(F)c(F)c1` [Example 8c, 1,5-(3,4-dichlorophenylamino)-2-(3,4-difluorobenzyl)-[1,2,4]thiadiazol-3-one]: the activity at 1.25 µM amounted to 7%.
Regarding `O=c1nc(Nc2ccc(Cl)c(Cl)c2)sn1CCc1ccccc1` [Example 8f, 5-(3,4-dichlorophenylamino)-2-phenethyl-[1,2,4]thiadiazol-3-one], the activity at 5 µM came to 8%.
The same measure, in the same setting: the figure for `O=c1nc(Nc2ccc(C(F)(F)F)cc2)sn1Cc1ccc(F)c(F)c1` [Example 8k, 2-[(3,4-difluorophenyl)methyl]-5-[[4-(trifluoromethyl)phenyl]amino]-1,2,4-thiadiazol-3-one] is 4%; for `O=c1nc(Nc2ccc(OC(F)(F)F)cc2)sn1Cc1ccc(F)c(F)c1` [Example 8l, 2-[(3,4-difluorophenyl)methyl]-5-[[4-(trifluoromethoxy)phenyl]amino]-1,2,4-thiadiazol-3-one] it is 10%; for `O=c1nc(Nc2ccc(C(F)(F)F)cc2)sn1Cc1ccc(Cl)cc1` [Example 8p, 2-[(4-chlorophenyl)methyl]-5-[[4-(trifluoromethyl)phenyl]amino]-1,2,4-thiadiazol-3-one] it is 7%.
With `O=c1nc(Nc2ccc(C(F)(F)F)cc2)sn1Cc1cccc(F)c1` [Example 8q, 2-[(3-fluorophenyl)methyl]-5-[[4-(trifluoromethyl)phenyl]amino]-1,2,4-thiadiazol-3-one], the activity at 5 µM came out at 15%.
For the compound `O=c1nc(Nc2ccc(C(F)(F)F)cc2)sn1CCc1ccccc1` [Example 8r, 2-[phenylethyl]-5-[[4-(trifluoromethyl)phenyl]amino]-1,2,4-thiadiazol-3-one], the activity at 5 µM came out at 58%.
Still for that read-out and setting: the figure for `N#Cc1ccc(Nc2nc(=O)n(Cc3ccc(F)c(F)c3)s2)cc1` [Example 8w, 4-[[2-[(3,4-difluorophenyl)methyl]-3-oxo-1,2,4-thiadiazol-5-yl]amino]benzonitrile] is 28%.
